These results are taken from patent publication US20200323962A1, “LIPOPHILIC PEPTIDE PRODRUGS” (YISSUM RESEARCH DEVELOPMENT COMPANY OF THE HEBREW …, priority 2017, published 2020).

Like-named read-outs stand apart in the source and are kept apart here. Marks after values point to notes of the source that are not given here. *1 amine or outer side, *2 acyl side, *3 side chain or, on linkers, in order; H or OH if unused. Where a SMILES comes first, the peptide text is derived from it. Bridges are numbered along the chain shown (N, C = ends). Where no end group is shown, it is not given here. [ ]: non-standard residue; d: D form. Arg(ω,ω'-(C6H13OCO)2) = CCCCCCOC(=O)N=C(NCCC[C@H](N)C(=O)O)NC(=O)OCCCCCC; Phe(Nα-(CH2)3CO) = O=C([C@H](Cc1ccccc1)N(CCCC(=O)[*:3])[*:1])[*:2]; N(2-aminoethyl)Phe = O=C([C@H](Cc1ccccc1)N(CCN[*:3])[*:1])[*:2]

What is called Papp A→B is the apparent permeability from the apical to the basolateral side of a cell layer. High values mean fast passage, low ones slow passage. The term Papp B→A denotes how fast a substance crosses the layer from the basolateral side. The logD is the decadic logarithm of the distribution of all forms, ionised or not, between an organic phase and buffer at a given pH. The efflux ratio is the permeability from basolateral to apical divided by that in the opposite direction, in the common usage. As usually defined, the IC50 is the concentration that inhibits the measured activity by half.

For data set [1] the following is noted: for Mass retention / Permeability, Mean / Permeability, replicate 1 / Permeability, replicate 2 / Permeability, replicate 3: PAMPA, pH 7.4. A general note: PAMPA measures passive passage across an artificial lipid membrane.
Source text: The Parallel Artificial Membrane Permeability Assay (PAMPA) is used as an in vitro model of passive, transcellular permeation. […] This assay also allows evaluation of permeability over a large pH range, which is valuable for a preliminary understanding of how orally delivered compounds might be absorbed across the entire gastrointestinal tract. […] Depending upon the types of lipids used and other experimental conditions, PAMPA may be designed to model absorption in gastrointestinal tract (PAMPA-GIT), blood-brain barrier penetration (PAMPA-BBB) or skin penetration (Skin PAMPA). All steps of the PAMPA were carried out according to pION Inc. PAMPA Explorer™ Manual. The main principle of the assay is the incubation of compound in donor chamber (a well in Donor Plate) with aqueous buffer, which is separated from acceptor chamber (a well in Acceptor Plate) with another buffer by a phospholipid or hydrocarbon membrane fixed on a filter support. After the test, concentrations in the corresponding donor and acceptor wells are measured and permeability is calculated. GIT model was simulated using GIT-0 phospholipid mix. […] All compounds were tested in triplicates. Prisma HT buffer (pH 7.4) containing 50 μM test compounds and 0.5% DMSO were added into the Donor Plate wells. Acceptor Sink buffer was added into each well of the acceptor plate. Incubation was done at room temperature for 4 hours without stirring. […] Compounds with low UV-Vis signal were detected by LC-MS/MS method. Then the apparent permeability coefficient was calculated.
In data set [2] the test system is Caco-2 cells. Put plainly: Caco-2 permeability study (Examples 1-4). To be noted: for Caco-2 permeability: qualitative. (In general: Passage across Caco-2 layers is used to estimate intestinal permeability.)
Procedure: (§1) The culture growth medium consisted of DMEM supplemented with 10% heat-inactivated FBS, 1% MEM-NEAA, 2 mM 1-glutamine, 1 mM sodium pyruvate, 50,000 units Penicillin G Sodium and 50 mg Streptomycin Sulfate (Biological Industries). The medium was replaced every other day.
(§2) Cells (passage 55-60) were seeded at density of 25×10^5 cells/cm^2 on untreated culture inserts of polycarbonate membrane with 0.4 μm pores and surface area of 1.1 cm^2. Culture inserts containing Caco-2 monolayer were placed in 12 mm transwell plates (Corning). Culture medium was replaced every other day. Transepithelial Electrical Resistance (TEER) values were measured by Millicell ERS-2 System (Millipore) a week after seeding up to experiment day (21-23 days) to ensure proliferation and differentiation of the cells. When the cells were fully differentiated and TEER values became stable (200-500 Ω·cm^2). The TEER values were compared to control inserts containing only the medium.
(§3) The experiment was initiated by replacing the medium from both sides by apical (600 μl) and basolateral (1500 μl) buffers, both warmed to 37° C. The Cells were incubated with the buffers solutions for 30 min at 37° C. on a shaker (100 cycles/min). […] 50 μl samples were taken from the apical side immediately at the beginning of the experiment, resulting in 550 μl apical volume during the experiment.
(§4) Permeability Coefficient (Papp) for each compound was calculated from the linear plot of drug accumulated versus time, using the following equation:
(§5) Where dq/dt is steady state appearance rate of the compound on the receiver side, C0 is the initial concentration of the drug on the donor side, and A is the exposed tissue surface area (1.1 cm^2).
(§6) Transport studies were performed through the Caco-2 monolayer mounted in an Ussing-type chamber set-up with continuous trans-epithelial electrical resistance (TEER) measurements to assure TEER between 800 and 1200 Ω*cm^2. HBSS supplemented with 10 mM IVIES and adjusted to pH 6.5 were used as transport medium in the donor compartment and pH 7.4 in the acceptor compartment. The donor solution contained the test compound.
(§7) Permeability mechanism of compounds is studied by evaluating the Papp of a compound from the apical to the basolateral (A-to-B) membrane and its Papp from the basolateral to the apical membrane (B-to-A). The A-to-B assay simulates passive and transporter-mediated permeability. The B-to-A assay is essential complementary experiment indicative of the activity of P-gp. The ratio of the A-to-B and B-to A Papps (efflux ratio) is calculated to determine the permeability mechanism.
Data set [3] has as its system somatostatin receptors. To be noted: SSTR subtypes; cited from earlier work.
Data set [4] relates to amylase and lipase release from the pancreas. To be noted: bombesin- and caerulein-induced; cited from earlier work.
The conditions of data set [5]: for Papp A→B: Caco-2, Papp (AB); for Papp B→A: Caco-2, Papp (BA).
For data set [6] the following is noted: pH 7.4, LogD.
Procedure: Log D. Determination of distribution coefficients were performed as follows:
Incubations were carried out in Eppendorf-type polypropylene microtubes in triplicates. […] Phase separation was assured by centrifugation for 2 min at 6000 rpm. The octanol phase was diluted 100-fold with 40% acetonitrile, and aqueous phase was analyzed without dilution. The samples (both phases) were analyzed using HPLC system coupled with tandem mass spectrometer.
Data set [7] is described as follows: in vitro. Conditions: human; for efflux ratio at 90 min, 10 µM: Caco-2, pH 7.4, Net efflux (quotient of Papp (BA) to Papp (AB)); for Papp A→B at 90 min, 10 μM: Caco-2, pH 7.4, Papp (AB); for Papp B→A at 90 min, 10 μM: Caco-2, pH 7.4, Papp (BA).
Data set [8] concerns the target T1, human αvβ6-Integrin (Homo sapiens, UniProt P06756+P18564, DEL708-788).
T1 construct: purchased R&D
The experiment in a line: Integrin binding assay (solid-phase), αvβ6.
Procedure: (1) 0.4 μg/mL; LAP (TGF-3), R&D.
(2) 0.5 μg/mL, human αvβ6-Integrin, R&D.

The nature of data set [9]: Caco-2 permeability study (Examples 1-4).
Procedure: as §1, §2, §3, §4, §5, §6, §7
Data set [10] concerns the target T2, human αvβ5-integrin (Homo sapiens, UniProt P06756+P18084).
T2 construct: purchased Millipore
Put plainly: Integrin binding assay (solid-phase), αvβ5.
Procedure: (1) 5.0 μg/mL; human vitronectin, Millipore.
(2) 3.0 μg/mL, human αvβ5-integrin, Millipore.

Data set [11] has as its target human α5β1-integrin (Homo sapiens, UniProt P05556+P08648, DEL729-798). The experiment in a line: biochemical.
Data set [12] is described as follows: in vitro. Conditions: human, Caco-2, Papp AB.
Procedure: as §1, §2, §3, §4, §5, §6, §7
Setting [13] is: pH 7.4 (mean in parentheses below reported bound).

T1 sequence (P06756 31-992 limits assumed, stated change not applied): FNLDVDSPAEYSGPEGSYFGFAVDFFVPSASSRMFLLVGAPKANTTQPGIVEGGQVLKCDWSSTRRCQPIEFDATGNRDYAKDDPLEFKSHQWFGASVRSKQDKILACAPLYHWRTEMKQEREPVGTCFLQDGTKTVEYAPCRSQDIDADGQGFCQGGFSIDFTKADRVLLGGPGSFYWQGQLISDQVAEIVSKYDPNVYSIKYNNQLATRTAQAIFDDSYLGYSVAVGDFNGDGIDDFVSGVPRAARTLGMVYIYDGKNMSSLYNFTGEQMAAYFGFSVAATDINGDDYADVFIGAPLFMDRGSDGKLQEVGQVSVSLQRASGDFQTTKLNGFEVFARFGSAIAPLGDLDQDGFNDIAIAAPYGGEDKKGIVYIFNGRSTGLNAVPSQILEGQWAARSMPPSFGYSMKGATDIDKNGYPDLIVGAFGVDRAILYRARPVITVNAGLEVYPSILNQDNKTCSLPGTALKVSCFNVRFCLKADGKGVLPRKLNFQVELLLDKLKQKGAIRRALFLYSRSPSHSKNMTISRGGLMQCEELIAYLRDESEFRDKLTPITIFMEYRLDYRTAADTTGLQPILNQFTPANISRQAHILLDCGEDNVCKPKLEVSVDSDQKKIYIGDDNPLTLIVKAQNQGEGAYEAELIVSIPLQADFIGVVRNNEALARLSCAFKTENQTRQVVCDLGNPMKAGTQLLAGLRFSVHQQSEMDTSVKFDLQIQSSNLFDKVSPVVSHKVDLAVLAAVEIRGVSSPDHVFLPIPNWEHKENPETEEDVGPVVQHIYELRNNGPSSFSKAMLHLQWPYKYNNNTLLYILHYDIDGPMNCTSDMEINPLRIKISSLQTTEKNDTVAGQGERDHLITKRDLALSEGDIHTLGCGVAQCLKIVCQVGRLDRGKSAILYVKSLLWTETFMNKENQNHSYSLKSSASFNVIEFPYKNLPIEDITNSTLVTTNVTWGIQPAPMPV
T1 sequence (P18564 22-707 limits assumed, stated change not applied): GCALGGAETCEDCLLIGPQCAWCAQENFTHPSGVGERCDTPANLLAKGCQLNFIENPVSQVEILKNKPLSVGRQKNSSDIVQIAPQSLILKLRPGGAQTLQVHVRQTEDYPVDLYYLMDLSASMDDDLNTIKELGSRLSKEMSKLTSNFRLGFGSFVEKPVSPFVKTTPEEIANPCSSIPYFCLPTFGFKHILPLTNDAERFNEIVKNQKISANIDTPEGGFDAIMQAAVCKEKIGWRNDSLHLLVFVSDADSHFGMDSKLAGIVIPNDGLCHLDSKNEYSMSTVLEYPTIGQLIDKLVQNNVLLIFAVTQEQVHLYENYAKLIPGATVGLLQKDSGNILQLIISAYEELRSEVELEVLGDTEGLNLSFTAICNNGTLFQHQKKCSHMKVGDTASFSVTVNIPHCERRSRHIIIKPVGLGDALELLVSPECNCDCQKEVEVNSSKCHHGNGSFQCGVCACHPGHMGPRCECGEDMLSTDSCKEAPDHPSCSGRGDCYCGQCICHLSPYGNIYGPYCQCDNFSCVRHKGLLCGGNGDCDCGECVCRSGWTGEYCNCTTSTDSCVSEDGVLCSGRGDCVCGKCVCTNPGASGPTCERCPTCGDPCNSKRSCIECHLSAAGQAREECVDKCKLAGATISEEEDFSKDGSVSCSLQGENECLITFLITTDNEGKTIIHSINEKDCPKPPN
human α5β1-integrin, sequence (P08648 42-995 limits assumed, stated change not applied): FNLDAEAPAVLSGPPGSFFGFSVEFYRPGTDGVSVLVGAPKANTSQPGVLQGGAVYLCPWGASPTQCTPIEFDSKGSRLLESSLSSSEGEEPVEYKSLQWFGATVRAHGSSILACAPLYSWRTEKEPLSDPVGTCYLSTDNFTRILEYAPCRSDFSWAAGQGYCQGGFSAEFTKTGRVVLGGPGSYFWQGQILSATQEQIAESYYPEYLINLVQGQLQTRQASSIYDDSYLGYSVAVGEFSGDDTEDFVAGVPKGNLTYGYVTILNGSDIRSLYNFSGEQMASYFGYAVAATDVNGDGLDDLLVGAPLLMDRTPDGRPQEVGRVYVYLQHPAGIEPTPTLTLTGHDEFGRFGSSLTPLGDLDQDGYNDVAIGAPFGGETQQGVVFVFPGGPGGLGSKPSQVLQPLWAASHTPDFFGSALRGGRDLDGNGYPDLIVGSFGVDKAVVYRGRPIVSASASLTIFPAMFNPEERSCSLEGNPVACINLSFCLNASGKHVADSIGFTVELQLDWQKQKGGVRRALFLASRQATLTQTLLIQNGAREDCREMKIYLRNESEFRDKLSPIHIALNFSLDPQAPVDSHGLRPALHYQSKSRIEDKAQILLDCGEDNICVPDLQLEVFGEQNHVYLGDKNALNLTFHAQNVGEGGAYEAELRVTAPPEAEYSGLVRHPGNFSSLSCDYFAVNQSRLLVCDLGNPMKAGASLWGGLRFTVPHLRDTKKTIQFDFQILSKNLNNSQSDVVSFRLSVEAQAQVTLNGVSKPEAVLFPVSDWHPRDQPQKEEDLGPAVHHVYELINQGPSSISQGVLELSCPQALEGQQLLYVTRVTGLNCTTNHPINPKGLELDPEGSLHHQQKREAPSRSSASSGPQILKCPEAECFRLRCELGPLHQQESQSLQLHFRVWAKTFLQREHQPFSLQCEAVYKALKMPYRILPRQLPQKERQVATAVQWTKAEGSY
human α5β1-integrin, sequence (P05556 21-728 limits assumed, stated change not applied): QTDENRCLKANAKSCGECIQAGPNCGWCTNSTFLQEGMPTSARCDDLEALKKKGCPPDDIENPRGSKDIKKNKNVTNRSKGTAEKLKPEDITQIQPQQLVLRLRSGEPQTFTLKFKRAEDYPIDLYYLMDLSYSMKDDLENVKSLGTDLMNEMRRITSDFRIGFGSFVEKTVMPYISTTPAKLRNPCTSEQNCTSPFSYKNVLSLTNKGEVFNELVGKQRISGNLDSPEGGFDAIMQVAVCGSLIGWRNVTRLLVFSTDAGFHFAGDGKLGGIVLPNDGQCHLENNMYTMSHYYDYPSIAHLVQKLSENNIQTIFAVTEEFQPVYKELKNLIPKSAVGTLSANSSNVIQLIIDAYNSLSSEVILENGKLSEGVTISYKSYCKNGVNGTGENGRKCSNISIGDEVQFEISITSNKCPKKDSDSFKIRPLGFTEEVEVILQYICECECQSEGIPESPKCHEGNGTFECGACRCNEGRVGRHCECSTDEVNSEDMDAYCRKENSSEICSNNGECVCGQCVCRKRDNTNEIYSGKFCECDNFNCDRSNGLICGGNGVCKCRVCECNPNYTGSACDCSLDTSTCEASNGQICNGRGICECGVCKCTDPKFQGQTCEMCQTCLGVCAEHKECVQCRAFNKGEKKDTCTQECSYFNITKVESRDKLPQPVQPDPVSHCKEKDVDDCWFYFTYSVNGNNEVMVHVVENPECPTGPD

In data set [1] (4 h, 50 μM), `CNC(=C[N+](=O)[O-])NCCSCc1ccc(CN(C)C)o1` [Ranitidine, reference compound] gave a Mass retention of 21%. Moreover, in data set [1], the “Permeability, Mean” value is <−7* Log10[10^−6 cm/s]; the “Permeability, replicate 1” value is below −7 Log10[10^−6 cm/s]; the “Permeability, replicate 2” value was below −7 Log10[10^−6 cm/s]; the “Permeability, replicate 3” value is below −7 Log10[10^−6 cm/s].

Take `CCCCCCOC(=O)N=C(N)NCCC[C@@H]1NC(=O)[C@@H](C(C)C)N(C)C(=O)[C@H](C)N(C)C(=O)[C@H](C)NC(=O)[C@H](CC(=O)OC)NC(=O)CNC1=O` [#29P-Hoc]: in data set [1], the “PAMPA permeability” value is given as “low permeability”; the Mass retention was 10%; the “Permeability, Mean” value was below −7 Log10[10^−6 cm/s]; the “Permeability, replicate 1” value was below −7 Log10[10^−6 cm/s]. In data set [1], the “Permeability, replicate 2” value is below −7 Log10[10^−6 cm/s] and the “Permeability, replicate 3” value is below −7 Log10[10^−6 cm/s].

For the molecule `C[C@@H]1NC(=O)[C@H](CC(=O)O)NC(=O)CNC(=O)[C@@H](CCCNC(=N)N)NC(=O)[C@H](C)N(C)C(=O)[C@H](C)N(C)C1=O` [compound 23, c(rGDA*A*A)], in data set [2] (Table 3, n = 3), the “Papp AB” value turned out to be 0.61 ± 0.09 cm/s × 10^6 and the “Papp BA” value worked out at 1.34 ± 0.03 cm/s × 10^6. Moreover, in data set [2], the “Caco-2 permeability” value is listed as “significant lower permeability”.

For “PTR-3046: backbone cyclic somatostatin analog (SEQ ID NO: 28) ([N(2-aminoethyl)Phe]Y[dW]KV[Phe(Nα-(CH2)3CO)]T-NH2; bridge 1-6; also: backbone cyclisation between building units)”, in data set [3], the “somatostatin receptor selectivity” value is listed as “selective toward the SSTR5”. For the same molecule, in data set [4], the “inhibition of amylase and lipase release” value was “inhibits bombesin- and caerulein-induced amylase and lipase release from the pancreas”.

In [5] (Mean), `CC(C)C[C@@H]1NC(=O)[C@H](CC(=O)O)NC(=O)CNC(=O)[C@H](CCCNC(=N)N)NC(=O)[C@H](Cc2ccccc2)NC(=O)[C@@H]2CCCN2C(=O)[C@@H]2CCCN2C(=O)[C@H](CC(C)C)NC(=O)[C@H](C)NC1=O` [OM1186] (cyclo(RGDLALPPF)) showed a Papp A→B below 0.3 ×10⁻⁶ cm/s and a basolateral-to-apical permeability (Papp B→A) of 0.2 ×10⁻⁶ cm/s. Further, in data set [5] (replicate 1), the Papp A→B was below 0.6 ×10⁻⁶ cm/s and the basolateral-to-apical permeability (Papp B→A) worked out at 0.1 ×10⁻⁶ cm/s. Also, in data set [5] (replicate 2), the Papp A→B was below 0.3 ×10⁻⁶ cm/s and the Papp B→A was 0.2 ×10⁻⁶ cm/s. Also, in [5] (replicate 3), the Papp B→A was determined as 0.3 ×10⁻⁶ cm/s. For the same molecule, in [6] (pH 7.4 (mean / reported value)), the logD is -0.19. For the same molecule, in [1], the Mass retention stood at 13%; the “Permeability, Mean” value is below −7 Log10[10^−6 cm/s]; the “Permeability, replicate 1” value is below −7 Log10[10^−6 cm/s]; the “Permeability, replicate 2” value is below −7 Log10[10^−6 cm/s]. Moreover, the “Permeability, replicate 3” value in [1] was below −7 Log10[10^−6 cm/s]. Moreover, the efflux ratio at 90 min, 10 µM in [7] was found to be 0.6.

In data set [5] (Mean), `CCCCCCOC(=O)N=C(NCCC[C@@H]1NC(=O)[C@H](Cc2ccccc2)NC(=O)[C@@H]2CCCN2C(=O)[C@@H]2CCCN2C(=O)[C@H](CC(C)C)NC(=O)[C@H](C)NC(=O)[C@H](CC(C)C)NC(=O)[C@H](CC(=O)OC)NC(=O)CNC1=O)NC(=O)OCCCCCC` [AR372] (cyclo(ALPPF[Arg(ω,ω'-(C6H13OCO)2)]GD(OMe)L)) registered a Papp A→B below 0.01 ×10⁻⁶ cm/s and a Papp B→A of 0.4 ×10⁻⁶ cm/s. In data set [5] (replicate 1), the Papp A→B was below 0.01 ×10⁻⁶ cm/s and the Papp B→A turned out to be 0.5 ×10⁻⁶ cm/s. In data set [5] (replicate 2), this molecule returned a Papp A→B below 0.01 ×10⁻⁶ cm/s and a Papp B→A of 0.5 ×10⁻⁶ cm/s. In [5] (replicate 3), the Papp A→B was below 0.01 ×10⁻⁶ cm/s and the Papp B→A was found to be 0.3 ×10⁻⁶ cm/s. The logD in data set [6] (pH 7.4 (mean / reported value)) is above 4.5. The logD in data set [6] (setting [13]) is 4.85. In [6] (pH 7.4 (single replicate)), this molecule yielded a logD of 4.8. Besides, in [1], the “PAMPA permeability” value is recorded as >−5 to >−6; the Mass retention came out at 80%; the “Permeability, Mean” value was −5.9 Log10[10^−6 cm/s]; the “Permeability, replicate 1” value was −6.2 Log10[10^−6 cm/s]. Besides, in data set [1], the “Permeability, replicate 2” value is −5.7 Log10[10^−6 cm/s] and the “Permeability, replicate 3” value is −5.7 Log10[10^−6 cm/s].

As to `CCCCCCOC(=O)N=C(NCCC[C@@H]1NC(=O)[C@H](C(C)C)N(C)C(=O)[C@@H](Cc2ccccc2)NC(=O)[C@H](CC(=O)OC)NC(=O)CNC1=O)NC(=O)OCCCCCC` [Cil.-P, c(f*VR(Hoc)2 GD)], in [1], the “PAMPA permeability” value was “does not enhance the permeability”; the Mass retention came out at 36%; the “Permeability, Mean” value is −6.5 Log10[10^−6 cm/s]; the “Permeability, replicate 1” value is −8.1 Log10[10^−6 cm/s]. In [1], the “Permeability, replicate 2” value was −6.6 Log10[10^−6 cm/s] and the “Permeability, replicate 3” value was −6.5 Log10[10^−6 cm/s].

In the case of `C[C@@H]1NC(=O)[C@H](CC(=O)O)NC(=O)CNC(=O)[C@@H](CCCNC(=N)N)N(C)C(=O)[C@H](Cc2ccccc2)NC(=O)[C@H](C)N(C)C1=O` [compound 33, c(*rGDA*AF)], the IC50 in data set [8] (Table 1, read-out: αvβ6, IC50) turned out to be 0.025 ± 0.003 µM.

For the molecule `CCCCCCOC(=O)N=C(NCCC[C@@H]1NC(=O)[C@@H](C(C)C)N(C)C(=O)[C@H](C)N(C)C(=O)[C@H](C)NC(=O)[C@H](CC(=O)OC)NC(=O)CNC1=O)NC(=O)OCCCCCC` [peptide 29P, c(*vR(Hoc)2GD(OMe)A*A)], the efflux ratio in [9] (Caco-2) worked out at 13. Further, the Papp A→B is 0.8 ×10⁻⁶ cm/s in [9] (Caco-2, Caco-2 Papp A-to-B, A-to-B, text values (FIGS. 4, 5, 7, 17-20), unit inferred) and 0.82 ± 0.13 ×10⁻⁶ cm/s in data set [9] (Caco-2, Papp AB, Table 3, n = 3). Further, the Papp B→A came to 10.6 ×10⁻⁶ cm/s in [9] (Caco-2, Caco-2 Papp B-to-A, B-to-A, text values (FIGS. 5, 18, 20), unit inferred) and 10.7 ± 2.14 ×10⁻⁶ cm/s in [9] (Caco-2, Papp BA, Table 3, n = 3).

Turning to `CC(C)C[C@@H]1NC(=O)CNC(=O)[C@@H]2CCCN2C(=O)[C@@H]2CCCN2C(=O)[C@H](CC(C)C)NC(=O)[C@H](CC(=O)O)NC(=O)CNC(=O)[C@H](CCCNC(=N)N)NC1=O` [FRX068] (cyclo(RGDLPPGL)), in data set [5] (Mean), the Papp A→B was found to be 0.3 ×10⁻⁶ cm/s and the Papp B→A worked out at 0.3 ×10⁻⁶ cm/s. In data set [5] (replicate 1), the Papp A→B was determined as 0.3 ×10⁻⁶ cm/s and the Papp B→A was 0.3 ×10⁻⁶ cm/s. Moreover, in data set [5] (replicate 2), the Papp A→B came out at 0.2 ×10⁻⁶ cm/s and the Papp B→A turned out to be 0.3 ×10⁻⁶ cm/s. In data set [5] (replicate 3), this molecule returned a Papp A→B of 0.2 ×10⁻⁶ cm/s and a Papp B→A of 0.3 ×10⁻⁶ cm/s. Moreover, the logD in [6] (pH 7.4 (mean / reported value)) is below -1. For the same molecule, the logD in [6] (setting [13]) is -1.49. In data set [1], the Mass retention was 2%; the “Permeability, Mean” value was below −7 Log10[10^−6 cm/s]; the “Permeability, replicate 1” value is below −7 Log10[10^−6 cm/s]; the “Permeability, replicate 2” value is below −7 Log10[10^−6 cm/s]. The “Permeability, replicate 3” value in [1] is below −7 Log10[10^−6 cm/s]. Also, in [7], the efflux ratio at 90 min, 10 µM was determined as 1.1.

In the case of `CC(C)NCC(O)COc1cccc2ccccc12` (stereo not drawn) [Propranolol], the efflux ratio at 90 min, 10 µM in data set [7] stood at 0.8. The Papp A→B at 90 min, 10 μM was determined as 18.1 ×10⁻⁶ cm/s in [7] (Mean), 14.9 ×10⁻⁶ cm/s in data set [7] (replicate 1), 24.1 ×10⁻⁶ cm/s in data set [7] (replicate 2) and 15.3 ×10⁻⁶ cm/s in data set [7] (replicate 3). Also, the values for the Papp B→A at 90 min, 10 μM in data set [7] (Mean), in data set [7] (replicate 2) and in data set [7] (replicate 3) were 15.3 ×10⁻⁶ cm/s, 15.3 ×10⁻⁶ cm/s and 17 ×10⁻⁶ cm/s, respectively.

Turning to `C[C@@H]1NC(=O)[C@H](C)N(C)C(=O)[C@H](C)NC(=O)[C@H](CC(=O)O)N(C)C(=O)CNC(=O)[C@@H](CCCNC(=N)N)NC1=O` [compound 17, c(rG*DA*AA)], the IC50 is above 5 µM in data set [10], above 10 µM in [8] and above 10 µM in [11]. Moreover, the “Caco-2 permeability” value in data set [2] is listed as “significant lower permeability”.

In data set [12], `COCCc1ccc(OCC(O)CNC(C)C)cc1` (stereo not drawn) [metoprolol] displayed a Papp A→B at 150 min of 1.89 ± 0.11 ×10⁻⁶ cm/s.

With `C=C[C@H]1C[N@@]2CC[C@H]1C[C@@H]2[C@@H](O)c1ccnc2ccc(OC)cc12` [Quinidine, reference compound], the Mass retention in [1] (4 h, 50 μM) came to 56%. Also, in [1], the “Permeability, Mean” value was −4.5* Log10[10^−6 cm/s]; the “Permeability, replicate 1” value is −4.6 Log10[10^−6 cm/s]; the “Permeability, replicate 2” value was −4.5 Log10[10^−6 cm/s]; the “Permeability, replicate 3” value was −4.5 Log10[10^−6 cm/s].
